Test results taken from patent US7993921B2, “Cell cycle regulation and differentiation” (National Institutes of Health (NIH), priority 2007, dated 2011).

Legend:
[1] = test system: p57^Kip2; assay: p57^Kip2 expression in OPCs (RT-PCR, immunostaining of clones); type: cell-based, rat
Description: p57^Kip2 was either over-expressed or reduced in levels in pure OPCs, and normal OL differentiation and OPC proliferation was observed. To test the necessity of p57^Kip2 in OL differentiation, knockdowns for p57^Kip2 were used to reduce p57^Kip2 levels in OPCs. p57^Kip2 levels were reduced by transfecting OPCs with siRNA directed against the p57^Kip2 transcript, and then cultured the transfected OPCs in media that stimulated OL differentiation. […] OPCs transfected with firefly luciferase- (cont) or p57^Kip2-targeting siRNA pools (Dharmacon) were cultured for 4 D.I.V. in −PDGF +T3 or +PDGF +T3 media and reduction in p57^Kip2 transcript levels by this method was confirmed by RT-PCR (27 cycles).
OL differentiation can be triggered by either by mitogen withdrawal or by the intrinsic timer coupled with exposure to T3 (Barres and Raff, Neuron 12:935-942 (1994)). Whereas either of these conditions will produce mature OLs, the initial genetic programs triggered by these two stimuli are not identical (Tokumoto et al., EMBO J. 20:5261-5268 (2001)). To more precisely determine how p57^Kip2 expression is induced, purified P8 OPCs were subjected to either mitogen withdrawal, T3 exposure, or both differentiation-promoting stimuli simultaneously (FIG. 48I). […]

[2] = test system: KLF9, Hr, DBP, BHLHB5; assay: Transcription factor induction by T3 in OPCs (Affymetrix Mouse Genomic 430 2.0 chips); type: cell-based
Protocol: FIG. 57. KLF9, Hr, DBP, and BHLHB5 are induced in OPCs by T3. Transcription factor probe sets were induced >2-fold by T3 at early time points relative to untreated (+PDGF −T3) controls. OPCs were treated with T3 for either 1 day or 6 days in vitro with T3 (+PDGF +T3), or for only 3 hours with T3 following 1 day or 6 days in vitro in media lacking T3 (+PDGF −T3, then 3 hours +PDGF +T3). All samples were labeled and hybridized to Affymetrix Mouse Genomic 430 2.0 chips.
In OPCs cultured in saturating amounts of mitogens and T3, a small number of transcription factors are rapidly and robustly regulated in response to T3 presentation (as compared to control cultures maintained in mitogens in the absence of T3). These four genes are 1) Kruppel-Like Factor 9 (KLF9), also known as Basic Transcription Element Binding protein 1(BTEB1), 2) basic helix-loop-helix domain containing, class B5 (BHLHB5), also known as Beta3, 3) Hairless, (Hr), or ALUNC, AU, N, ba, bldy, hr, rh, rh-bmh, rhino, and 4) D site albumin promoter binding protein (DBP). KLF9, Hr, and DBP are all induced (2-6 fold) rapidly in OPCs in response to T3, before the OPCs initiate differentiation in response to T3 presentation (FIG. 57).

[3] = test system: OPCs from the cortex and cerebellum; assay: Differentiation of OPCs from the cortex and cerebellum in response to T3; type: cell-based, rat; conditions: 7 days in vitro +PDGF +T3
Protocol: OPCs were purified via immunopanning specifically from the cortices or cerebellums of P7 Sprague-Dawley rats. These cells were then plated onto glass coverslips in the presence or absence of mitogens PDGF and NT3 (±PDGF) and presence or absence of thyroid hormone (±T3) and cultured for 3 (−PDGF) or 7 (+PDGF ±T3) days in vitro, with fresh media being supplied every 2-3 days. At the end of this time, cultures were stained for either CNPase expression (less mature) or MBP expression (more mature) as markers of OL differentiation. Percentages of healthy cells (as assessed by healthy nuclei visualized by DAPI staining) expressing indicated markers were quantified for each condition. […] All experiments analyzed in triplicate, ±S.E.M.

N[C@@H](Cc1cc(I)c(Oc2ccc(O)c(I)c2)c(I)c1)C(=O)O [T3, triiodothyronine]
clones expressing uniformly high levels of p57^Kip2 ([1]; 7 days in +PDGF +T3 medium, clonal density): 15 out of 23 | p57^Kip2 expression by semi-quantitative RT-PCR ([1]; T3 exposure, 6 DIV, purified P8 OPCs): did not induce | KLF9, Hr and DBP induction in OPCs in response to T3 ([2]; +PDGF +T3 vs +PDGF −T3 controls): 2-6 fold | transcription factor probe sets (KLF9, Hr, DBP, BHLHB5) induced by T3 ([2]; early time points relative to untreated (+PDGF −T3) controls): > 2 fold | KLF9 induction by T3 in OPCs ([2]; within 3 hours of T3 exposure): 4 fold | expression of mature OL proteins (CNPase, MBP) in cerebellar vs cortical OPCs in response to T3 [3]: similarly
